# Assay results taken from patent US6949585B2, “Cyclooctanone derivatives and cyclodecanone derivative, and use thereof” (Eisai Co., Ltd., priority 2001, dated 2005).
# What was measured:
# Type in all cases: cell-based
# IL-2 production = IL-2 production by PHA-stimulated human peripheral lymphocytes (ELISA); settings: PHA 10 μl/ml, 48 h, compound 0.1-100 μM
# Procedure: Human peripheral lymphocytes were stimulated with mitogen (PHA) to induce IL-2 production. The amount of IL-2 produced was measured to evaluate the inhibitory effect of the present compound. Briefly, human peripheral blood monocyte fraction was isolated in a manner similar to Test Example 1.
# The monocytes were suspended in RPM 1640 medium (Gibco BRL) containing 10% FCS and seeded in a petri dish and left at 37° C. for an hour. Then, the cells (lymphocytes) which were not attached to the wall of the petri desh were isolated by centrifugation. The lymphocytes collected were suspended in the medium and seeded at 5×10^5 cell/160 μl in a 96-well plate.
# The present compound was added to the lymphocytes cultured and the mixture was left at 37° C. for thirty minutes. Then, the cells were stimulated by adding PHA (Difco) at a final concentration of 10 μl/ml and left at 37° C. for forty eight hours. For control, the cells were used wherein PHA was added to the cell at a final concentration of 10 μl/ml without the present compound.
# The amount of IL-2 which was released in the culture supernatant was measured using an ELISA kit (BioSource International). The inhibitory rate (%) of IL-2 production as compared to control was calculated using the following formula from IL-2 amounts thus measured: [formula]
# In addition, the concentration of the present compound to inhibit 50% (IC50) was calculated by plotting the inhibitory rate (%) of IL-2 production obtained by varying a final concentration of the present compound of from 0.1 μM to 100 μM.
# TNF-α production = TNF-α production by LPS-stimulated human peripheral blood monocytes (ELISA); settings: LPS 10 ng/ml, 18 h, compound 0.1-100 μM
# Procedure: (§1) TNF-α and IL-6 production inhibitory activity of the compound of the present invention was evaluated by determining the amounts of TNF-α and IL-6 produced by the human peripheral blood monocyte stimulated with lipopolysaccharide(LPS). Briefly, human peripheral blood monocyte fraction was isolated from the peripheral venous blood from healthy male volunteers by density gradient centrifugation with Ficoll-Paque (Pharmacia). The monocytes were suspended in RPMI 1640 medium (Gibco BRL) containing 10% FCS and seeded at 5×10^5 cell/160 μl in a 96-well plate.
# (§2) The present compound was added to the monocytes cultured and the mixture was left at 37° C. for thirty minutes. Then the monocytes were stimulated by adding LPS (Sigma) at a final concentration of 10 ng/ml and left 37° C. for eighteen hours. For control, the cells were used wherein LPS was added to the cell at a final concentration of 10 ng/ml without the present compound.
# (§3) The amount of each of TNF-α and IL-6, which were released in the culture supernatant, was measured using an ELISA kit (R & D). The inhibitory rate (%) of TNF-α and IL-6 production as compared to control was calculated using the following formula from the amounts of TNF-α and […] thus measured: [formula]
# (§4) In addition, the concentration of the present compound to inhibit 50% (IC50) was calculated by plotting the inhibitory rate (%) of IL-6 and TNF-α production obtained by varying a final concentration of the present compound of from 0.1 μM to 100 μM.
# IL-6 production = IL-6 production by LPS-stimulated human peripheral blood monocytes (ELISA); settings: Monocyte, LPS 10 ng/ml, 18 h, compound 0.1-100 μM
# Procedure: as §1, §2, §3, §4
Structure (SMILES),IC50 (IL-2 production; Lymphocyte) [µM],IC50 (TNF-α production; Monocyte) [µM],IC50 (IL-2 production) [µM],IC50 (TNF-α production) [µM],IC50 (IL-6 production) [µM]
"O=C1C=CCC(CCc2ccccc2)C[C@@H](O)[C@H]1O (mixture of isomers) [Example 84 (b), (7RS,8RS)-7,8-dihydroxy-5-phenethyl-2-cycloocten-1-one]",3.6,8.8,,,
"O=C1C=CCC(CCc2ccccc2O)C[C@@H](O)[C@H]1O (mixture of isomers) [Example 85 (a), (7RS,8RS)-7,8-dihydroxy-5-[2-(2-hydroxyphenyl)ethyl]-2-cycloocten-1-one]",64.9,2.2,,,
"O=C1/C=C\CCC(Cc2ccccc2)CC[C@@H](O)[C@H]1O (mixture of isomers) [Example 87, Z-(9RS,10RS)-6-benzyl-9,10-dihydroxy-2-cyclodecen-1-one]",3,12.4,,,
"O=C(OC1CC=CC(=O)[C@H](O)[C@H](O)C1)c1ccccc1O (mixture of isomers) [Example 90 (a), (6RS,7RS)-6,7-dihydroxy-5-oxo-3-cyclooctenyl 2-hydroxybenzoate]",,3.4,,,
"O=C(OC1CC/C=C\C(=O)[C@H](O)[C@H](O)CC1)c1ccccc1O (mixture of isomers) [Example 92, Z-(7RS,8RS)-7,8-dihydroxy-6-oxo-4-cyclodecenyl (2-hydroxy)benzoate]",1.2,1.7,,,
"COc1ccc(C(=O)OC2CC/C=C\C(=O)[C@H](O)[C@H](O)CC2)c(O)c1 (mixture of isomers) [Example 93, Z-(7RS,8RS)-7,8-dihydroxy-6-oxo-4-cyclodecenyl (2-hydroxy-4-methoxy)benzoate]",,,2,1.8,
"O=C1C=CCC(Cc2ccccc2)CCC1 (centres unmarked) [Example 4, 5-Benzyl-2-cycloocten-1-one]",,13.6,,,23.3
"O=C1C=CCC(CCc2ccccc2)CCC1 (centres unmarked) [Example 5, 5-Phenethyl-2-cycloocten-1-one]",1.7,13.7,,,21.6
"O=C1C=CCC(CCc2cccc(O)c2)CCC1 (centres unmarked) [Example 18, 5-[2-(3-Hydroxyphenyl)ethyl]-2-cycloocten-1-one]",2.1,5.9,,,6.8
"O=C1/C=C\CCC(Cc2ccccc2)CCCC1 (centres unmarked) [Example 22 (a), Z-6-benzyl-2-cyclodecen-1-one]",2.6,28.1,,,
"COc1ccc(C(=O)OC2CC=CC(=O)CCC2)c(O)c1 (centres unmarked) [Example 47, 5-Oxo-3-cyclooctenyl (2-hydroxy-4-methoxy)benzoate]",,,0.14,0.5,
